Consider 26 molecules from ChEMBL document CHEMBL1201862, “PubChem BioAssay data set” (2004).

Some test systems named below: XF498; RXF 631; LXFL 529; DMS-114; M19-MEL; SNB-78; DLD-1; DMS-273; HOP-18.
Test in all cases: NCI anticancer screen, dose series, 48 h

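A five-concentration, 48-hour dose response in 96-well plates underlies each endpoint, interpolated linearly between surrounding concentrations. GI50 marks 50% less growth.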 Active and inactive are the calls of the source. No stated cut-off is given here; in the data, active = GI50 up to about 1.1 µM and inactive = higher.

In the case of `NC(=S)N/N=C(/CC(=O)c1ccc([N+](=O)[O-])cc1)C(=O)Nc1ncc([N+](=O)[O-])s1`, the GI50 with XF498 was > 100 µM (inactive); with RXF 631, > 100 µM (inactive); in the test on LXFL 529, 92.5 µM (inactive); in the test with DMS-114, 68.1 µM (inactive); in the test with M19-MEL, > 100 µM (inactive); in the test on SNB-78 it was > 100 µM (inactive). Moreover, the GI50 in the test with DLD-1 is > 100 µM (inactive).

With `COc1cc2c3c(c1OC)-c1c(ccc4c1OCO4)CC3(C#N)N(C(=O)c1ccccc1)CC2` (stereo not drawn), the GI50 in the test on XF498 is 23 µM (inactive); in the test on RXF 631, 49.4 µM (inactive); in the test on LXFL 529 it was 73.8 µM (inactive); with DMS-114, 45.5 µM (inactive); in the test with M19-MEL it was 67.6 µM (inactive); in the test with SNB-78, 66.4 µM (inactive). In addition, the GI50 was 52.2 µM (inactive) in the test on DLD-1 and 49.7 µM (inactive) in the test on DMS-273.

As for `CC(C(=O)c1ccc(Cl)cc1)/C(=N/NC(=O)NN)C(=O)Nc1cccc(C(F)(F)F)c1` (stereo not drawn), the GI50 in the test on XF498, in the test with RXF 631, in the test with LXFL 529, with DMS-114, in the test on M19-MEL and in the test with SNB-78 was > 100 µM (inactive) in each case. Moreover, the GI50 is > 100 µM (inactive) with DLD-1, 56.5 µM (inactive) with HOP-18 and > 100 µM (inactive) with DMS-273.

On to `C[P+]1(Cc2ccccc2)CCCC1`, for which the GI50 with XF498 is < 0.01 µM (active); with LXFL 529, > 100 µM (inactive); in the test on DMS-114 it was > 100 µM (inactive); in the test on M19-MEL it was > 100 µM (inactive); in the test with SNB-78, > 100 µM (inactive); in the test with DLD-1, > 100 µM (inactive). Besides, the GI50 with HOP-18 is 63.7 µM (inactive); in the test with DMS-273, > 100 µM (inactive).

Consider `CCOc1ccc(/N=N/c2c(-c3ccccc3)nn(C(=O)CC(=O)Nc3cccc(C)c3)c2-c2ccccc2)cc1`, for which the GI50 was 95.1 µM (inactive) in the test on XF498; 27.5 µM (inactive) with RXF 631; > 100 µM (inactive) with LXFL 529; 30.4 µM (inactive) in the test with DMS-114; > 100 µM (inactive) in the test with SNB-78; 63.2 µM (inactive) with DLD-1. Further, the GI50 in the test on HOP-18 and in the test with DMS-273 was > 100 µM (inactive) in each case.

With `COc1ccc(CCCN2c3ccccc3Sc3ccccc32)cc1`, the GI50 was > 100 µM (inactive) in the test with XF498; 73.1 µM (inactive) with LXFL 529; 28.1 µM (inactive) with DMS-114; 91.8 µM (inactive) in the test with SNB-78; > 100 µM (inactive) in the test on DLD-1; > 100 µM (inactive) in the test with HOP-18. Besides, the GI50 with DMS-273 is 33.5 µM (inactive).

Consider `O=C(/C=C/c1cccc([N+](=O)[O-])c1)c1ccc([N+](=O)[O-])cc1`, for which the GI50 in the test with XF498, in the test on RXF 631, in the test with LXFL 529, in the test on M19-MEL, with SNB-78 and with DLD-1 was > 100 µM (inactive) each time. In addition, the GI50 in the test with DMS-273 is > 100 µM (inactive).

For `CC1=C(C(=O)Nc2ccc([N+](=O)[O-])cc2)C(c2ccco2)C(C(=O)Nc2ccc([N+](=O)[O-])cc2)=C(C)N1`, the GI50 is 0.6 µM (active) in the test with XF498; 35.8 µM (inactive) in the test on RXF 631; 6.75 µM (inactive) in the test on LXFL 529; 5 µM (inactive) with DMS-114; 13.1 µM (inactive) with M19-MEL; 11.9 µM (inactive) with SNB-78. Further, in the test with DLD-1, the GI50 is 9.68 µM (inactive).

On to `C1CCN(c2nsc(N3CCCCC3)n2)CC1`, for which the GI50 in the test on RXF 631, in the test on LXFL 529, with DMS-114, with M19-MEL, in the test on SNB-78 and with DLD-1 was > 100 µM (inactive) each time. For the same molecule, the GI50 in the test on HOP-18 and in the test on DMS-273 was > 100 µM (inactive) each time.

As for `CC(C(=O)Oc1ccc2ccccc2c1-c1c(O)ccc2ccccc12)c1ccccc1` (stereo not drawn), the GI50 in the test with XF498 was 14.2 µM (inactive); in the test on RXF 631 it was 17.2 µM (inactive); in the test on LXFL 529 it was 14.1 µM (inactive); in the test with DMS-114, 12.3 µM (inactive); in the test on M19-MEL it was 15.5 µM (inactive); in the test with SNB-78, 15.4 µM (inactive). In addition, the GI50 with DMS-273 was > 10 µM (inactive).

Regarding `Cn1c2c(c3ccccc31)C1C(=O)N(c3ccccc3)C(=O)C1CC2` (stereo not drawn), the GI50 in the test on RXF 631, in the test with LXFL 529, in the test on DMS-114, in the test with DLD-1 and with DMS-273 was > 303 µM (inactive) each time.

`COc1ccc(C2C(Cl)C(=O)N2NC(=O)Cc2ccccc2)cc1` (stereo not drawn): the GI50 in the test with XF498, in the test on LXFL 529, with M19-MEL, in the test on SNB-78, in the test with DLD-1 and with HOP-18 was > 100 µM (inactive) in each case. Besides, the GI50 in the test with DMS-273 is > 100 µM (inactive).

For the molecule `O=C1C2=C(c3ccccc31)C(c1cccc(Cl)c1)NC(S)=N2` (stereo not drawn), the GI50 in the test on XF498 is > 100 µM (inactive); in the test on LXFL 529 it was > 100 µM (inactive); in the test on DMS-114, > 100 µM (inactive); in the test on M19-MEL, > 100 µM (inactive); in the test on DLD-1, > 100 µM (inactive); in the test on DMS-273, 80.9 µM (inactive).

With `COC(=O)CC(=O)NCC1=CCC(=O)CC1`, the GI50 in the test on XF498, in the test on LXFL 529, in the test with DMS-114, with M19-MEL, in the test with SNB-78 and in the test on DLD-1 was > 100 µM (inactive) in each case. In addition, the GI50 in the test with DMS-273 is > 100 µM (inactive).

Turning to `NS(=O)(=O)c1ccc(NC(=O)COC(=O)c2cccc3c(=O)c4ccccc4[nH]c23)cc1`, the GI50 is 33.1 µM (inactive) with RXF 631; 7.93 µM (inactive) with LXFL 529; 18.9 µM (inactive) in the test on DMS-114; 31.3 µM (inactive) in the test with M19-MEL; 17.4 µM (inactive) in the test on SNB-78; 45 µM (inactive) with DLD-1. Further, the GI50 was 20.1 µM (inactive) in the test with HOP-18 and 37.2 µM (inactive) with DMS-273.

With `CC(C)N(C(=O)C1(C)CC1)C(C)C`, the GI50 in the test on XF498, with RXF 631, in the test with LXFL 529, in the test with DMS-114, with M19-MEL and in the test on SNB-78 was > 100 µM (inactive) each time. Further, the GI50 in the test with DLD-1, with HOP-18 and with DMS-273 was > 100 µM (inactive) each time.

On to `N#Cc1ccc(C2OCC3CC=CCC3CO2)cc1` (stereo not drawn), for which the GI50 was > 100 µM (inactive) in the test on XF498; 41.7 µM (inactive) with RXF 631; 47.1 µM (inactive) in the test on LXFL 529; 61.7 µM (inactive) with DMS-114; 84.7 µM (inactive) with M19-MEL; > 100 µM (inactive) in the test on SNB-78. For the same molecule, the GI50 in the test on DLD-1 was 55 µM (inactive); with HOP-18, > 100 µM (inactive).

As for `Nc1nc(-c2ccccc2)cc(-c2cc(Cl)ccc2O)n1`, the GI50 in the test on RXF 631 was > 100 µM (inactive); in the test on LXFL 529 it was 48.3 µM (inactive); in the test with DMS-114, 55.6 µM (inactive); in the test on SNB-78 it was > 100 µM (inactive); in the test with DLD-1, 98.2 µM (inactive); with HOP-18, > 100 µM (inactive). Besides, in the test with DMS-273, the GI50 was 44.7 µM (inactive).

Consider `O=C1C=CC(=O)N1Nc1ccc([N+](=O)[O-])cc1[N+](=O)[O-]`, for which the GI50 was > 44.5 µM (inactive) in the test on LXFL 529; > 100 µM (inactive) in the test on DMS-114; > 89.7 µM (inactive) with M19-MEL; > 100 µM (inactive) with SNB-78; > 100 µM (inactive) in the test on DLD-1; > 100 µM (inactive) in the test on DMS-273.

Consider `COc1ccc(/C=C(\Cl)c2ccc(OC)cc2)cc1`, for which the GI50 in the test on LXFL 529, in the test with DMS-114, in the test with M19-MEL, with DLD-1 and in the test on DMS-273 was > 100 µM (inactive) throughout.

As for `CC(=O)C1C(=O)NC(=O)C1=O` (stereo not drawn), the GI50 in the test with XF498, in the test with LXFL 529, in the test with DMS-114, in the test on M19-MEL, in the test on SNB-78 and in the test with HOP-18 was > 100 µM (inactive) throughout. In the test with DMS-273, the GI50 was > 100 µM (inactive).

Turning to `CC1=C[C@H]2C[C@@]3(C)O[C@@H]([C@]4(C)CC[C@H]([C@@H](C)C(=O)O)OO4)CC3C(C)(C)[C@H]2CC1` (stereo partly drawn), the GI50 with XF498 was 0.0573 µM (active); in the test with LXFL 529 it was 0.612 µM (active); in the test with DMS-114, 1.56 µM (inactive); in the test with M19-MEL, 1.67 µM (inactive); in the test with SNB-78, 1.08 µM (active); in the test with DLD-1, 0.916 µM (active). In the test on DMS-273, the GI50 is 0.526 µM (active).

As to `C[N+]1=c2c3cccc4cccc(c(=O)n2CC1)c43`, the GI50 in the test with RXF 631 is 24.2 µM (inactive); with LXFL 529, 13.9 µM (inactive); in the test on DMS-114, 15.7 µM (inactive); with M19-MEL, 17.3 µM (inactive); in the test on SNB-78 it was 14.2 µM (inactive); with DLD-1, 16.1 µM (inactive). In addition, the GI50 is 21.6 µM (inactive) with HOP-18 and 12.4 µM (inactive) in the test with DMS-273.

Take `CCCCCCCCCCCCCC(=O)OCC1OC(=O)C(O)C1O` (stereo not drawn): the GI50 in the test with XF498, in the test on LXFL 529, in the test on DMS-114, in the test with M19-MEL, in the test on DLD-1 and with HOP-18 was > 100 µM (inactive) each time.

For the molecule `C[P+](C)(C)C`, the GI50 in the test with XF498, in the test on RXF 631, in the test on LXFL 529, in the test on DMS-114, with M19-MEL and with SNB-78 was > 100 µM (inactive) in each case. Also, the GI50 in the test with DLD-1 and in the test on HOP-18 was > 100 µM (inactive) in each case.

For the molecule `CC(C)CN(CC(C)C)C(=O)C1CCCC[C@@H]1C(=O)O` (stereo partly drawn), the GI50 with RXF 631, in the test with LXFL 529, in the test on DMS-114, in the test on M19-MEL, in the test on SNB-78 and in the test with DLD-1 was > 100 µM (inactive) each time. Besides, the GI50 in the test on HOP-18 and with DMS-273 was > 100 µM (inactive) in each case.
